# From paper PMC12567096, “An Efficacy- and In Vivo Exposure-Oriented Integrated Study to Investigate the Effective Components of Qishen Granule” (Pharmaceuticals, 2025)
# How the values were obtained:
# [1] = Concentrations of 24 analytes in QSG treated plasma (Table S5); conditions: for Exposure level in vivo (in words) / Concentration: QSG treated plasma; for Exposure level in vivo (in words): Table S5; for concentration at 0.5 h / concentration at 1 h / concentration at 0.08 h / concentration at 0.17 h / concentration at 2 h / concentration at 4 h / concentration at 8 h / concentration at 12 h: Sprague Dawley, rat, 7 g/kg; for Concentration: n = 5
# OGD/R-induced H9c2 cells = assay: Protective effect on OGD/R-induced H9c2 cells (CCK-8 cell viability); assay type: cell-based, rat; conditions: 1, 10, 25, 50 and 100 μM prior to OGD/R, vs model group
# Procedure: (§1) Rat myocardial H9c2 cells (purchased from China Infrastructure of Cell Line Resources, Institute of Basic Medical Sciences, Chinese Academy of Medical Sciences) were cultured in DMEM supplemented with 10% fetal bovine serum (FBS), Penicillin (100 U/mL), and Streptomycin (100 μg/mL) at 37 °C under a humidified atmosphere of 5% CO2 and 95% air. For OGD/R treatment, H9c2 cells were cultured in glucose-free DMEM under hypoxic conditions (95%N2 + 5%CO2) for 4 h at 37 °C followed by complete medium under normal conditions with air (95%) and CO2 (5%) for 2 h. A control group was maintained under normal culture conditions (with glucose-containing DMEM and 5% CO2) without undergoing OGD/R treatment. CCK8 was used to assess cell viability. After treatment, H9c2 cells were seeded in 96-well plates, with each well supplemented with 10 μL of CCK-8 solution and then incubated for 1 h. Finally, the absorbance at 450 nm was detected by a microplate reader (Model […] 200 PRO, TECAN, Grodig, Austria).
# When evaluating the cytotoxicities of the absorbed compounds, the H9c2 cells were seeded in 96-well plates at a density of 1 × 10^4 cells/well; when cells reached 80% confluence, they were treated with 25 and 50 μM of the 24 analytes to screen the non-toxic concentration ranges. Afterward, the protective effects were verified by assessing the cell viability when treating with different concentrations (1, 10, 25, 50, and 100 μM) of the analytes prior to OGD/R treatment.
# H9c2 cells = assay: Cytotoxicity on H9c2 cells (CCK-8); assay type: cell-based, rat; conditions: H9c2 cells, n=3; for inhibition at 25 µM / inhibition at 50 µM / inhibition at 100 µM: Rattus norvegicus, read-out: Inhibition rate
# Procedure: as §1
# When evaluating the cytotoxicities of the absorbed compounds, the H9c2 cells were seeded in 96-well plates at a density of 1 × 10^4 cells/well; when cells reached 80% confluence, […] Afterward, the protective effects were verified by assessing the cell viability when treating with different concentrations (1, 10, 25, 50, and 100 μM) of the analytes prior to OGD/R treatment.
compound,measurement,setting,value
COC(=O)C1=CO[C@@H](O[C@@H]2O[C@H](CO)[C@@H](O)[C@H](O)[C@H]2O)[C@@H]2[C@@H](C)[C@H](O)C[C@H]12 [7-epi-loganin],Exposure level in vivo (in words),[1],relatively lower exposure levels
same,concentration at 0.5 h,"[1]; plasma, oral",1.73 ± 0.49 ng/mL
same,concentration at 1 h,"[1]; plasma, oral",1.5 ± 0.298 ng/mL
same,H9c2 cell survival after OGD/R (in words),OGD/R-induced H9c2 cells,significantly improve H9c2 cell survival rates
same,inhibition at 25 µM,H9c2 cells; 25 μM,2.8 ± 0.9%
same,inhibition at 50 µM,H9c2 cells; 50 μM,7.1 ± 4.3%
same,inhibition at 100 µM,H9c2 cells; 100 μM,10.3 ± 3.5%
COC[C@]12O[C@H]1[C@@H](O)[C@@H]1C=CO[C@@H](O[C@@H]3O[C@H](CO)[C@@H](O)[C@H](O)[C@H]3O)[C@@H]12 [10-methoxyl catalpol],Concentration,[1]; 0.5 h,2.315 ± 0.283 ng/mL
same,Concentration,[1]; 1 h,1.293 ± 0.135 ng/mL
same,Inhibition rate,H9c2 cells; 25 μM,2.8 ± 0.9%
same,Inhibition rate,H9c2 cells; 50 μM,5.1 ± 4.3%
same,Inhibition rate,H9c2 cells; 100 μM,9.1 ± 4.2%
COc1ccc(CCO[C@@H]2O[C@H](CO[C@@H]3OC[C@H](O)[C@H](O)[C@H]3O)[C@@H](OC(=O)/C=C/c3ccc(O)c(OC)c3)[C@H](O[C@@H]3O[C@@H](C)[C@H](O)[C@@H](O)[C@H]3O)[C@H]2O)cc1O [Angoroside C],Concentration,[1]; 0.5 h,4.290 ± 1.023 ng/mL
same,Concentration,[1]; 1 h,3.109 ± 0.501 ng/mL
same,Concentration,[1]; 2 h,1.029 ± 0.203 ng/mL
same,Exposure level in vivo (in words),[1],relatively lower exposure levels
same,H9c2 cell survival after OGD/R (in words),OGD/R-induced H9c2 cells,significantly improve H9c2 cell survival rates
same,Inhibition rate,H9c2 cells; 25 μM,3.6 ± 4.5%
same,Inhibition rate,H9c2 cells; 50 μM,12.7 ± 5.1%
same,Inhibition rate,H9c2 cells; 100 μM,18.7 ± 1.1%
"COc1ccc(-c2coc3cc(O[C@@H]4O[C@H](CO)[C@@H](O)[C@H](O)[C@H]4O)ccc3c2=O)cc1O [Calycosin-7-O-glucoside, Calycosin-7-O-D-glucoside]",Concentration,[1]; 0.08 h,1.161 ± 0.988 ng/mL
same,Concentration,[1]; 0.17 h,2.081 ± 1.576 ng/mL
same,Concentration,[1]; 0.5 h,8.612 ± 0.681 ng/mL
same,Concentration,[1]; 1 h,3.192 ± 1.624 ng/mL
same,Concentration,[1]; 2 h,3.096 ± 2.601 ng/mL
same,Concentration,[1]; 4 h,1.198 ± 1.103 ng/mL
same,Concentration,[1]; 8 h,1.241 ± 0.963 ng/mL
same,Concentration,[1]; 12 h,0.536 ± 0.271 ng/mL
same,Inhibition rate,H9c2 cells; 25 μM,-1.2 ± 3.5%
same,Inhibition rate,H9c2 cells; 50 μM,7.8 ± 6.4%
same,Inhibition rate,H9c2 cells; 100 μM,11.8 ± 6.1%
COc1ccc(-c2coc3cc(O)ccc3c2=O)cc1O [Calycosin],concentration at 0.08 h,"[1]; plasma, oral",0.966 ± 0.737 ng/mL
same,concentration at 0.17 h,"[1]; plasma, oral",2.15 ± 0.363 ng/mL
same,concentration at 0.5 h,"[1]; plasma, oral",2.51 ± 0.672 ng/mL
same,concentration at 1 h,"[1]; plasma, oral",1.7 ± 0.563 ng/mL
same,concentration at 2 h,"[1]; plasma, oral",0.825 ± 0.375 ng/mL
same,concentration at 4 h,"[1]; plasma, oral",0.589 ± 0.46 ng/mL
same,concentration at 8 h,"[1]; plasma, oral",0.737 ± 0.203 ng/mL
same,concentration at 12 h,"[1]; plasma, oral",0.647 ± 0.195 ng/mL
same,inhibition at 25 µM,H9c2 cells; 25 μM,6.8 ± 3.9%
same,inhibition at 50 µM,H9c2 cells; 50 μM,6.3 ± 8.3%
same,inhibition at 100 µM,H9c2 cells; 100 μM,9.3 ± 4.2%
"COc1ccc(-c2coc3cc(O[C@@H]4O[C@H](CO)[C@@H](O)[C@H](O)[C@H]4O)ccc3c2=O)cc1 [Formononetin-7-O-glucoside, Formononetin-7-O-D-glucoside]",Inhibition rate,H9c2 cells; 25 μM,0.8 ± 0.9%
same,Inhibition rate,H9c2 cells; 50 μM,9.1 ± 4.3%
same,Inhibition rate,H9c2 cells; 100 μM,11.1 ± 2.3%
COC[C@@]12CC[C@H](OC)[C@]34C(C([C@H](OC)[C@H]13)[C@]1(OC(C)=O)[C@H]3[C@@H](OC(=O)c5ccccc5)[C@](O)(C[C@H]34)[C@@H](OC)[C@@H]1O)N(C)C2 [Hypaconitine],concentration at 0.08 h,[1]; in vivo,0.048 ± 0.019 ng/mL
same,concentration at 0.17 h,[1]; in vivo,0.202 ± 0.096 ng/mL
same,concentration at 0.5 h,[1]; in vivo,0.308 ± 0.041 ng/mL
same,concentration at 1 h,[1]; in vivo,0.34 ± 0.066 ng/mL
same,concentration at 2 h,[1]; in vivo,0.331 ± 0.081 ng/mL
same,concentration at 4 h,[1]; in vivo,0.212 ± 0.084 ng/mL
same,concentration at 8 h,[1]; in vivo,0.071 ± 0.049 ng/mL
same,concentration at 12 h,[1]; in vivo,0.005 ± 0.013 ng/mL
same,inhibition at 25 µM,H9c2 cells; 25 μM,13.7 ± 4.1%
same,inhibition at 50 µM,H9c2 cells; 50 μM,20.8 ± 3.2%
same,inhibition at 100 µM,H9c2 cells; 100 μM,32.8 ± 1.2%
O=C(/C=C/c1ccc(O[C@@H]2O[C@H](CO)[C@@H](O)[C@H](O)[C@H]2O)cc1)c1ccc(O)cc1O [Isoliquiritin],concentration at 0.08 h,[1]; in vivo,0.332 ± 0.496 ng/mL
same,concentration at 0.17 h,[1]; in vivo,1.24 ± 0.874 ng/mL
same,concentration at 0.5 h,[1]; in vivo,2.54 ± 0.684 ng/mL
same,concentration at 1 h,[1]; in vivo,1.31 ± 0.788 ng/mL
same,concentration at 2 h,[1]; in vivo,0.456 ± 0.573 ng/mL
same,concentration at 4 h,[1]; in vivo,0.075 ± 0.309 ng/mL
same,concentration at 8 h,[1]; in vivo,0.078 ± 0.159 ng/mL
same,concentration at 12 h,[1]; in vivo,0.158 ± 0.323 ng/mL
same,inhibition at 25 µM,H9c2 cells; 25 μM,-18.3 ± 3.6%
same,inhibition at 50 µM,H9c2 cells; 50 μM,8.5 ± 2.9%
same,inhibition at 100 µM,H9c2 cells; 100 μM,13.5 ± 2.3%
O=C1C[C@@H](c2ccc(O)cc2)Oc2cc(O)ccc21 [Liquiritigenin],Concentration,[1]; 0.08 h,1.163 ± 0.835 ng/mL
same,Concentration,[1]; 0.17 h,3.082 ± 0.977 ng/mL
same,Concentration,[1]; 0.5 h,4.378 ± 0.959 ng/mL
same,Concentration,[1]; 1 h,3.255 ± 1.246 ng/mL
same,Concentration,[1]; 2 h,2.336 ± 1.150 ng/mL
same,Concentration,[1]; 4 h,2.064 ± 0.888 ng/mL
same,Concentration,[1]; 8 h,2.239 ± 1.209 ng/mL
same,Concentration,[1]; 12 h,2.987 ± 1.135 ng/mL
same,Inhibition rate,H9c2 cells; 25 μM,-4.4 ± 2.2%
same,Inhibition rate,H9c2 cells; 50 μM,2.3 ± 3.3%
same,Inhibition rate,H9c2 cells; 100 μM,8.5 ± 3.6%
O=C1C[C@@H](c2ccc(O[C@@H]3O[C@H](CO)[C@@H](O)[C@H](O)[C@H]3O)cc2)Oc2cc(O)ccc21 [Liquiritin],concentration at 0.08 h,"[1]; plasma, oral",2.07 ± 1.32 ng/mL
same,concentration at 0.17 h,"[1]; plasma, oral",11.8 ± 10.9 ng/mL
same,concentration at 0.5 h,"[1]; plasma, oral",26.8 ± 4.42 ng/mL
same,concentration at 1 h,"[1]; plasma, oral",17.8 ± 5.29 ng/mL
same,concentration at 2 h,"[1]; plasma, oral",8.3 ± 2.48 ng/mL
same,concentration at 4 h,"[1]; plasma, oral",4.02 ± 3.3 ng/mL
same,concentration at 8 h,"[1]; plasma, oral",2.17 ± 0.609 ng/mL
same,concentration at 12 h,"[1]; plasma, oral",1.36 ± 2.74 ng/mL
same,inhibition at 25 µM,H9c2 cells; 25 μM,-7.4 ± 7.5%
same,inhibition at 50 µM,H9c2 cells; 50 μM,11.6 ± 0.6%
same,inhibition at 100 µM,H9c2 cells; 100 μM,17.6 ± 1.2%
COC(=O)C1=CO[C@@H](O[C@@H]2O[C@H](CO)[C@@H](O)[C@H](O)[C@H]2O)[C@@H]2[C@H](C)O[C@@H](O)C[C@H]12 [Morroniside],Exposure level in vivo (in words),[1],relatively lower exposure levels
same,concentration at 0.5 h,"[1]; plasma, oral",3.05 ± 0.802 ng/mL
same,concentration at 1 h,"[1]; plasma, oral",2.4 ± 0.829 ng/mL
same,H9c2 cell survival after OGD/R (in words),OGD/R-induced H9c2 cells,significantly improve H9c2 cell survival rates
same,inhibition at 25 µM,H9c2 cells; 25 μM,-10.6 ± 7.6%
same,inhibition at 50 µM,H9c2 cells; 50 μM,2.1 ± 5.6%
same,inhibition at 100 µM,H9c2 cells; 100 μM,8.1 ± 3.9%
C=C[C@H]1[C@H](O[C@@H]2O[C@H](CO)[C@@H](O)[C@H](O)[C@H]2O)OC=C(C(=O)O)[C@H]1CC(=O)O [Secologanoside],Concentration,[1]; 0.5 h,4.124 ± 1.235 ng/mL
same,Concentration,[1]; 1 h,2.135 ± 1.024 ng/mL
same,Concentration,[1]; 2 h,1.274 ± 0.246 ng/mL
same,Inhibition rate,H9c2 cells; 25 μM,-15.6 ± 7.9%
same,Inhibition rate,H9c2 cells; 50 μM,11.0 ± 7.7%
same,Inhibition rate,H9c2 cells; 100 μM,19.1 ± 3.7%
C=C[C@H]1[C@H](O[C@@H]2O[C@H](CO)[C@@H](O)[C@H](O)[C@H]2O)OC=C(C(=O)OC)[C@H]1CC(=O)O [Secoxyloganin],Inhibition rate,H9c2 cells; 25 μM,3.5 ± 1.2%
same,Inhibition rate,H9c2 cells; 50 μM,7.9 ± 3.3%
same,Inhibition rate,H9c2 cells; 100 μM,9.9 ± 2.7%
Liquiritin apioside,H9c2 cell survival after OGD/R (in words),OGD/R-induced H9c2 cells,significantly improve H9c2 cell survival rates
same,Inhibition rate,H9c2 cells; 25 μM,-25.2 ± 3.5%
same,Inhibition rate,H9c2 cells; 50 μM,-16.2 ± 3.6%
same,Inhibition rate,H9c2 cells; 100 μM,-6.1 ± 2.5%
